Consider one compound from US20260191861A1, “INFLAMMASOME AND VEGF INHIBITION FOR RETINAL VASCULAR DISEASES” (University of Virginia Patent Foundation, priority 2022, published 2026).

This assay has as its system caspase-1. As to the kind of experiment: Rhegmatogenous retinal detachment (RRD) model: retinal caspase-1 cleavage by immunoblot. As to conditions: day 3 RRD, equimolar IP doses twice daily (K-9H 60 mg/kg, 3TC 50 mg/kg). The assay is classed as in vivo, mouse. On the procedure:
All experiments involving animals were approved by the University of Virginia Institutional Animal Care and Use Committee (IACUC) and adhered to the Association for Research in Vision and Ophthalmology (ARVO) Statement for the Use of Animals in Ophthalmic and Vision Research. Animal subjects were male and female mice aged 6 to 10 weeks. Wild type C57BL/6J mice were obtained from the Jackson Laboratory (Bar Harbor, ME, USA). To anesthetize mice for study procedures, ketamine hydrochloride (100 mg/kg; Ft. Dodge Animal Health, Overland Park, KS, USA) and xylazine (10 mg/kg; Phoenix Scientific, St. Joseph, MO, USA) were delivered by intraperitoneal (IP) injection. Pupils were dilated with topical 1% tropicamide and 2.5% phenylephrine (Alcon Laboratories, Ft. Worth, TX, USA).
RRD model was established by subretinal injection (SRI) of 3 μl 1% carboxymethyl cellulose (CMC; Refresh Liquigel, Allergan, Irvine, CA, USA).
NRTIs and K-9 were delivered via intraperitoneal (IP) injection in equimolar amounts. […] Kamuvudine K-9 (3-methyl-3TC, MW=273 g/mol) was administered either at a low dose (K-9L; 90 mg/kg daily) or a high dose (K-9H; 60 mg/kg twice daily, equimolar to NRTI doses). IP injection of phosphate buffered saline (PBS) was used as control.
Retinal tissue was extracted and lysed by sonication in radioimmunoprecipitation assay (RIPA) buffer (MilliporeSigma, Darmstadt, Germany). The Pierce BCA Protein Assay Kit (ThermoFisher Scientific, Waltham, MA, USA) was used to determine protein concentrations of interest. Samples were prepared that contained equal concentrations of total protein (10-100 μg). Protein samples were resolved by SDS-PAGE and transferred onto Immobilon-FL PVDF membranes (Millipore, Billerica, MA, USA). Membranes were blocked in Odyssey Blocking Buffer (PBS) for 1 hour at room temperature, and then incubated overnight with primary antibody at 4° C. Across study experiments, the following antibodies were used: anti-mouse caspase-1 (1:1000; AG-20B-0042; AdipoGen Life Sciences, San Diego, CA, USA), and anti-mouse GAPDH (1:1000; 2118; Cell Signaling, Danvers, MA, USA). […]

As to `Nc1ccn([C@@H]2CS[C@H](CO)O2)c(=O)n1` [Lamivudine], the “degree of suppression of caspase-1 activation” value was 52%+8%.
